This note sets out measurements from US9981954B2, “2-(pyrazin-2-ylcarbonylaminomethyl) benzimidazolium compounds as epithelial sodium channel inhibitors” (Boehringer Ingelheim International GmbH, priority 2015, dated 2018).

The structures appear in SMILES notation.

Series [1] in a line: Permeability in CALU-3 cells. In kind it is in vitro ADME. The settings on record: human, CALU-3 monolayers, pH 7.4, 37° C., 10 μM compound; for Papp A→B at 90 min, 10 μM: apical-to-basal; for Papp B→A at 90 min, 10 μM: basal-to-apical. On the procedure: Permeability in CALU-3 Cells:
Permeability measurements across polarized, confluent CALU-3 cell monolayers grown on permeable filter supports are used to provide information on the potential of a compound to pass the lung epithelium.
CALU-3 cells (1-2×10^5 cells/l cm^2 area) are seeded on filter inserts (Costar transwell polycarbonate filters, 0.4 μm pore size) and cultured (for 10-12 days DMEM) until tight monolayers are formed. Compounds of interest are dissolved in appropriate solvent (DMSO, 10 mM stock solution). […] The transport solution (TL) is applied to the apical or basolateral donor side for measuring A-B or B-A permeability (3 filter replicates), respectively. The receiver side contains the same buffer as the donor side. After 30 min of accommodation, samples are collected at the start t0=0 min and at the end of the experiment tn=90 min from the donor and at 0, 30, 60, and 90 min also from the receiver chamber. Volume removed is […] by HTP-4 buffer. The compound concentration in the samples is measured by HPLC-MS/MS or scintillation counting. The permeability coefficient (Papp) and efflux ratio are calculated according to: Papp [cm/s]=(concentration receiver [nM]*volume receiver [mL]/time interval [sec])*(1/filter area)*(1/donor concentration [nM]).

In series [2] the target is T1, ENaC (Epithelial Sodium Channel), Mouse kidney M-1 cells (Mus musculus, UniProt Q61180+Q9WU38+Q9WU39).
T1 construct: Mouse kidney M-1 cells were cultivated in DMEM containing 5% FCS and 5 μM dexamethasone; endogenous in cells; host or cells: Mouse kidney M-1 cells (polarised on transwell filters, dexamethasone-treated)
T1 sequence (Q61180 1-699): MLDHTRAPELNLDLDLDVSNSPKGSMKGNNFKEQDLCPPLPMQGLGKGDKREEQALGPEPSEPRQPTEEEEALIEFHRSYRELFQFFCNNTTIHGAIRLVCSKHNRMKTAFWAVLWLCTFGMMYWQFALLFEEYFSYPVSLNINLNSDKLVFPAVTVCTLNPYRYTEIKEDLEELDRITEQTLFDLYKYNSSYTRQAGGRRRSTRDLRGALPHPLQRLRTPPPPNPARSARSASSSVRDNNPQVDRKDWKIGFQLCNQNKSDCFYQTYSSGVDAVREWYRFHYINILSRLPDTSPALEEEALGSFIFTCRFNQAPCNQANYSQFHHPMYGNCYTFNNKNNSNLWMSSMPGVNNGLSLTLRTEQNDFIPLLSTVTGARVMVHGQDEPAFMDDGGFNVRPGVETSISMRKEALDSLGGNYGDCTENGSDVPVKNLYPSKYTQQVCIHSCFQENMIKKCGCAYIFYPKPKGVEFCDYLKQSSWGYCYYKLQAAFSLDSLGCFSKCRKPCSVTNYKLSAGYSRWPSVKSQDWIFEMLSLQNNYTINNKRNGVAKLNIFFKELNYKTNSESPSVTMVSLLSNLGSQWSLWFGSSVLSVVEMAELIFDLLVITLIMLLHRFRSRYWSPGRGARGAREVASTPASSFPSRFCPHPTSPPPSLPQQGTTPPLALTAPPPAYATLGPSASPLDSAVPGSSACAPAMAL
T1 sequence (Q9WU38 1-638): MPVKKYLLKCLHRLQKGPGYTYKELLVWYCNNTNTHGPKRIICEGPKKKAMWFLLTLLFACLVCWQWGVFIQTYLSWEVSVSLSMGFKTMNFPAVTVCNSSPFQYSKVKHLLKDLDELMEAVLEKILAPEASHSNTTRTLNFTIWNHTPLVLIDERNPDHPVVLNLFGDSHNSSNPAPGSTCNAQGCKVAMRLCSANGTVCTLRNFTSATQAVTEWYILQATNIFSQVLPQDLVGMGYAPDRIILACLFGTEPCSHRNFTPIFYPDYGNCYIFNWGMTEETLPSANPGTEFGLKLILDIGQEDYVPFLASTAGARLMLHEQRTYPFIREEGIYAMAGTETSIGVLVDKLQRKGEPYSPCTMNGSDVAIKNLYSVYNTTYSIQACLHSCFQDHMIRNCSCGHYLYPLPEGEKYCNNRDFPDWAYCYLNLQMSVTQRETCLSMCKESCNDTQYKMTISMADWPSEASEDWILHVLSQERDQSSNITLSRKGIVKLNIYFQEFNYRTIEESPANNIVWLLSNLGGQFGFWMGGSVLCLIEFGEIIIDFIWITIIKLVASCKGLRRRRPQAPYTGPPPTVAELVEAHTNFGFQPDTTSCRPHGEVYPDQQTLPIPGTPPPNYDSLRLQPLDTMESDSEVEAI
T1 sequence (Q9WU39 1-655): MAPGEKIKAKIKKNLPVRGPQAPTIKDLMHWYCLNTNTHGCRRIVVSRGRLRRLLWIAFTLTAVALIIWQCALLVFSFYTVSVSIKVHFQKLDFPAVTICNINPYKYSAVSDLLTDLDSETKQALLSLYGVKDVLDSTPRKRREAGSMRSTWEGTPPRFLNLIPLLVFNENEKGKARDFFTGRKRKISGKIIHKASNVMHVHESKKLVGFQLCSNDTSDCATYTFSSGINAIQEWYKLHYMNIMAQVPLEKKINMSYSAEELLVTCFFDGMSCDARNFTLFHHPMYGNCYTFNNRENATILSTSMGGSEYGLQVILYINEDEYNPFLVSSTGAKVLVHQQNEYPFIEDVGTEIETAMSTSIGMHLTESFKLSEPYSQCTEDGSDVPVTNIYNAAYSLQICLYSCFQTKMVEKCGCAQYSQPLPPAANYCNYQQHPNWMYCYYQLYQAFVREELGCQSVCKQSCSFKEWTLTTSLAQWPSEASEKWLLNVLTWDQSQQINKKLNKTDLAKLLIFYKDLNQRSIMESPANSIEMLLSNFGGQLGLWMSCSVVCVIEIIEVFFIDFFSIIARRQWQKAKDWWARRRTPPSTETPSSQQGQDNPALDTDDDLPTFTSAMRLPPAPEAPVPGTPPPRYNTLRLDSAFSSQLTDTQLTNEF
The series can be described thus: Ussing Chamber assay: inhibition of amiloride sensitive short circuit current in M-1 cells. In kind it is cell-based. The settings on record: apical application, 37° C. On the procedure: Ussing Chamber: Mouse kidney M-1 cells were cultivated in DMEM containing 5% FCS and 5 μM dexamethasone for 10 to 12 days on polyester transwell filters. Filters were inserted into a teflon-coated well-plate which fit into the ussing chamber system. Prior to measurement the medium of M-1 cells was replaced with Caco-2 transport buffer (Invitrogen, Germany). During measurements, the Ussing chamber temperature was kept at 37° C. Short circuit currents (I_sc) were measured in the voltage-clamp mode with the software package Lab View for data acquisition and analysis. The transepithelial electrical resistance (TEER) was determined by the application of voltage steps of ±5 mV every 5 sec. Compounds were administered at a final concentration of 3 μM or at increasing concentrations (1-3-10 μM) to the apical solution. At the end of each experiment the amiloride sensitive I_SC was measured by adding 3 μM amiloride to the apical compartment. Results are expressed as inhibition in percent of the amiloride effect or as IC50.

Consider `CC[n+]1c(CNC(=O)c2nc(Cl)c(N)nc2N)n(CCCc2ccc(OCP(C)(C)=O)cc2)c2cc(OC)ccc21.O=C([O-])C(F)(F)F` [Example 1.03], for which, in series [1], the Papp A→B at 90 min, 10 μM came to 0.1 ×10⁻⁶ cm/s and the Papp B→A at 90 min, 10 μM was 0.07 ×10⁻⁶ cm/s. For the same compound, the IC50 in series [2] was 8 nM.
In series [1], `CCn1c(CNC(=O)c2nc(Cl)c(N)nc2N)[n+](CC(=O)N2CCOCC2)c2ccc(OC)cc21.[Br-]` [Example 3.02] registered a Papp A→B at 90 min, 10 μM of 0.06 ×10⁻⁶ cm/s and a Papp B→A at 90 min, 10 μM of 0.2 ×10⁻⁶ cm/s. In addition, inhibition in series [2] was half-maximal at 5 nM (IC50).
For the compound `CCn1c(CNC(=O)c2nc(Cl)c(N)nc2N)[n+](CC(=O)NCCN(C)C)c2ccc(OC)cc21.O=C(O)C(F)(F)F.O=C([O-])C(F)(F)F` [Example 3.06], in series [1], the Papp A→B at 90 min, 10 μM amounted to 0.1 ×10⁻⁶ cm/s and the Papp B→A at 90 min, 10 μM came out at 0.03 ×10⁻⁶ cm/s. In series [2], this compound registered an IC50 of 8 nM.
Taken in the same sequence, the figures for `CCn1c(CNC(=O)c2nc(Cl)c(N)nc2N)[n+](CC(=O)N2CCN(C(=O)OC(C)(C)C)CC2)c2ccc(OC)cc21.[Br-]` [Example 3.08] were 0.1 ×10⁻⁶ cm/s, 0.08 ×10⁻⁶ cm/s and 4 nM.
Consider `CCn1c(CNC(=O)c2nc(Cl)c(N)nc2N)[n+](CC(=O)NC2CCN(C(=O)OC(C)(C)C)CC2)c2ccc(OC)cc21.[Br-]` [Example 3.12], for which, in series [1], the Papp A→B at 90 min, 10 μM is 0.09 ×10⁻⁶ cm/s and the Papp B→A at 90 min, 10 μM was found to be 0.3 ×10⁻⁶ cm/s. Further, in series [2], the IC50 was 12 nM.
In series [1], `CCn1c(CNC(=O)c2nc(Cl)c(N)nc2N)[n+](CC(=O)N(C)CCOC)c2ccc(OC)cc21.[Br-]` [Example 3.13] gave a Papp A→B at 90 min, 10 μM of 0.07 ×10⁻⁶ cm/s and a Papp B→A at 90 min, 10 μM of 0.2 ×10⁻⁶ cm/s. This compound showed a half-inhibitory concentration (IC50) in series [2] of 7 nM.
Taken in the same sequence, the figures for `CCn1c(CNC(=O)c2nc(Cl)c(N)nc2N)[n+](CC(=O)N2CCNCC2)c2ccc(OC)cc21.Cl.[Cl-]` [Example 6.01] were 0.3 ×10⁻⁶ cm/s, 0.2 ×10⁻⁶ cm/s and 47 nM.
In the case of `CC[n+]1c(CNC(=O)c2nc(Cl)c(N)nc2N)n(C2CCN(C(=O)NCCOC)CC2)c2ccccc21.O=C[O-]` [Example 7.01], in series [1], the Papp A→B at 90 min, 10 μM stood at 0.07 ×10⁻⁶ cm/s and the basolateral-to-apical permeability (Papp B→A) at 90 min, 10 μM stood at 0.2 ×10⁻⁶ cm/s. Besides, the IC50 in series [2] amounted to 1 nM.
Taken in the same sequence, the figures for `CCn1c(CNC(=O)c2nc(Cl)c(N)nc2N)[n+](CC(=O)c2ccc(OC)c(OC)c2)c2ccc(OC)cc21.O=C([O-])C(F)(F)F` [Example 8.01] were 0.3 ×10⁻⁶ cm/s, 0.2 ×10⁻⁶ cm/s and 13 nM.
